Experiments:
[1] = system: oligo-1: d(CGCGAATTCGCG)2; assay: UV thermal denaturation; format: binding
[2] = system: oligo-2: d(CGATGTACATCG)2; assay: UV thermal denaturation; format: binding
[3] = system: oligo-1: d(CGCGAATTCGCG)2; assay: Fluorescence titration; format: binding; conditions: 20 °C, pH 7.2
[4] = system: NIH3T3; assay: MTT cytotoxicity assay; format: cell-based; conditions: Mus musculus, NIH3T3, 48 h
[5] = system: SR; assay: NCI-60 SRB growth assay; format: cell-based, human
[6] = system: HOP-92; assay: NCI-60 SRB growth assay; format: cell-based, human
[7] = system: NCI-H522; assay: NCI-60 SRB growth assay; format: cell-based, human
[8] = system: HCT-116; assay: NCI-60 SRB growth assay; format: cell-based, human; conditions: HCT-116
[9] = system: HCT-15; assay: NCI-60 SRB growth assay; format: cell-based, human; conditions: HCT-15
[10] = system: KM12; assay: NCI-60 SRB growth assay; format: cell-based, human
[11] = system: SF-295; assay: NCI-60 SRB growth assay; format: cell-based, human
[12] = system: M14; assay: NCI-60 SRB growth assay; format: cell-based, human; conditions: M14
[13] = system: MDA-MB-435; assay: NCI-60 SRB growth assay; format: cell-based, human
[14] = system: UACC-257; assay: NCI-60 SRB growth assay; format: cell-based, human
[15] = system: IGROV1; assay: NCI-60 SRB growth assay; format: cell-based, human
[16] = system: OVCAR-3; assay: NCI-60 SRB growth assay; format: cell-based, human
[17] = system: OVCAR-5; assay: NCI-60 SRB growth assay; format: cell-based, human
[18] = system: 786-0; assay: NCI-60 SRB growth assay; format: cell-based, human
[19] = system: A498; assay: NCI-60 SRB growth assay; format: cell-based, human
[20] = system: ACHN; assay: NCI-60 SRB growth assay; format: cell-based, human
[21] = system: DU-145; assay: NCI-60 SRB growth assay; format: cell-based, human
[22] = system: MDA-MB-231/ATCC; assay: NCI-60 SRB growth assay; format: cell-based, human
[23] = system: HL-60(TB); assay: cells; conditions: Homo sapiens
[24] = biological target: T1, Hu Topo I (Homo sapiens, UniProt P11387); assay: Plasmid DNA relaxation assay
T1 sequence (P11387 1-765): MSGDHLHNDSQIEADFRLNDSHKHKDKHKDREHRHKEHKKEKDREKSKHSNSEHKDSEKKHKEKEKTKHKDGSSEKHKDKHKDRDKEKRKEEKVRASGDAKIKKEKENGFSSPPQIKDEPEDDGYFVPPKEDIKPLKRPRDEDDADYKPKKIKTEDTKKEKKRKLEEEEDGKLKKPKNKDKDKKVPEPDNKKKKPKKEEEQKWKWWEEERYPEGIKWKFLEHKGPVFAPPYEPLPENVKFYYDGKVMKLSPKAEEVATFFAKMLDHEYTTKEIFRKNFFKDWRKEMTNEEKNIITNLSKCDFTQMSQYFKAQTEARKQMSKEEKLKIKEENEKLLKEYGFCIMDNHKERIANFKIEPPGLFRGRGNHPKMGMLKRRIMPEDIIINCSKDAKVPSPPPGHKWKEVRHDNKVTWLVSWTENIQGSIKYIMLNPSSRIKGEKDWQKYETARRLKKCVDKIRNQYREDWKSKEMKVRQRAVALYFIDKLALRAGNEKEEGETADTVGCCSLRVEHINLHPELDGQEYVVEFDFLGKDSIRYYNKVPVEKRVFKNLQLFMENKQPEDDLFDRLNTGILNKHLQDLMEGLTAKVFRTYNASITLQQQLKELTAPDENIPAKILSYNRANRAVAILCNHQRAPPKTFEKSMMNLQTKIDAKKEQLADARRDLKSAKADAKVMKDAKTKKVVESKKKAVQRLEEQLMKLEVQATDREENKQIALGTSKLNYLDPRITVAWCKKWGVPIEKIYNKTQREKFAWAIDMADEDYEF

CCCCN1CCN(c2ccc3[nH]c(-c4ccc5[nH]c(-c6ccc(C(F)(F)F)cc6)nc5c4)nc3c2)CC1 [12b, 5-(5-(4-Butylpiperazin-1-yl)-1H-benzo[d]imidazol-2-yl)2(4(trifluoromethyl)phenyl)-1H-benzo[d]imidazole]
ΔTm ([1]; r = 0.5): 3 °C
Tm ([1]; r = 0.5, oligo 2.5 μM): 57.7 °C
Tm ([1]; r = 1): 58.7 °C
ΔTm ([1]; r = 1): 4 °C
Tm ([1]; r = 1.5): 59.7 °C
ΔTm ([1]; r = 1.5): 5 °C
Tm ([1]; r = 2.0): 61.7 °C
ΔTm ([1]; r = 2.0): 7 °C
ΔTm ([2]; r = 0.5): 1 °C
Tm ([2]; r = 0.5, oligo 2.5 μM): 57.9 °C
Tm ([2]; r = 1): 58.9 °C
ΔTm ([2]; r = 1): 2 °C
Tm ([2]; r = 1.5): 58.9 °C
ΔTm ([2]; r = 1.5): 2 °C
Tm ([2]; r = 2.0): 59.9 °C
ΔTm ([2]; r = 2.0): 3 °C
Ka binding affinity with oligo-1 [3]: 1 × 10^7 M^–1
IC50 [4]: 3.2 µM
TGI [5]: 0.65 µM
GI50 ([5]; Homo sapiens): 0.26 µM
TGI ([6]; HOP-92): 2.78 µM
GI50 ([6]; Homo sapiens, HOP-92): 1.18 µM
CC50 ([6]; Homo sapiens, HOP-92, read-out: LC50): 6.5 µM
GI50 ([7]; Homo sapiens, NCI-H522): 1.6 µM
TGI ([7]; NCI–H522): 3.6 µM
TGI [8]: 0.42 µM
GI50 ([8]; Homo sapiens): 0.2 µM
TGI [9]: 0.74 µM
GI50 ([9]; Homo sapiens): 0.27 µM
GI50 ([10]; Homo sapiens, KM12): 0.67 µM
CC50 ([10]; Homo sapiens, KM12, read-out: LC50): 4.9 µM
TGI ([10]; KM12): 2.04 µM
GI50 ([11]; Homo sapiens, SF-295): 1.34 µM
CC50 ([11]; Homo sapiens, SF-295, read-out: LC50): 5.4 µM
TGI ([11]; SF-265): 2.7 µM
GI50 ([12]; Homo sapiens): 0.37 µM
TGI [12]: 2.4 µM
GI50 ([13]; Homo sapiens, MDA-MB-435): 1.4 µM
CC50 ([13]; Homo sapiens, MDA-MB-435, read-out: LC50): 5.5 µM
TGI ([13]; MDA-MB-435): 2.8 µM
GI50 ([14]; Homo sapiens, UACC-257): 1.7 µM
CC50 ([14]; Homo sapiens, UACC-257, read-out: LC50): 7.2 µM
TGI ([14]; UACC-257): 3.5 µM
GI50 ([15]; Homo sapiens, IGROV-1): 1.7 µM
TGI ([15]; IGROV1): 3.4 µM
GI50 ([16]; Homo sapiens, OVCAR-3): 0.21 µM
CC50 ([16]; Homo sapiens, OVCAR-3, read-out: LC50): 0.73 µM
TGI ([16]; OVCAR-3): 0.4 µM
GI50 ([17]; Homo sapiens, OVCAR-5): 1.8 µM
CC50 ([17]; Homo sapiens, OVCAR-5, read-out: LC50): 5.9 µM
TGI ([17]; OVCAR-5): 3.5 µM
TGI ([18]; 786–0): 3.04 µM
GI50 ([18]; Homo sapiens, 786-0): 1.47 µM
TGI ([19]; A498): 3.31 µM
GI50 ([19]; Homo sapiens, A498): 1.69 µM
CC50 ([19]; Homo sapiens, A498, read-out: LC50): 6.49 µM
TGI [20]: 2.6 µM
GI50 ([20]; Homo sapiens): 1.32 µM
CC50 ([20]; Homo sapiens, read-out: LC50): 5.14 µM
TGI ([21]; DU-145): 1.68 µM
GI50 ([21]; Homo sapiens, DU-145): 0.45 µM
CC50 ([21]; Homo sapiens, DU-145, read-out: LC50): 4.3 µM
GI50 ([22]; Homo sapiens, MDA-MB-231): 1.46 µM
CC50 ([22]; Homo sapiens, MDA-MB-231, read-out: LC50): 5.84 µM
TGI ([22]; MDA-MB-231): 2.92 µM
GI50 ([23]; HL-60): 1.2 µM
CC50 ([23]; HL-60, read-out: LC50): 6.6 µM
IC50 [24]: 16 µM

From article PMC8793051 (ACS Omega, 2022)
